The text below walks through data of patent publication US9023853B2, “Janus kinase 2 (JAK2) inhibitor for the treatment of lupus” (Cephalon, Inc., priority 2010, dated 2015).

One assay deals with C3. Kind of assay: Serum complement C3 in MRL/lpr mice. The class given is in vivo, mouse. The text has this:
MRL/lpr mice were first randomized, initial bleeds collected, and body weights recorded for baseline measurements (FIG. 1). All mice were individually ear tagged and were monitored throughout the entire experiment (e.g., “Group#-Cage letter-Mouse#”, so “3B5”=Group 3 (G3), cage B, mouse#5). Mice were age-matched and treatment started at 6-8 weeks of age. Cheek bleeds and urine collection continued weekly throughout the experiment. Mice were individually tracked for several parameters including cytokine and ANA levels, proteinuria, body mass, lymphomegaly, general health, and mortality. All parameters were evaluated bi-monthly except mortality which was monitored daily. All groups consisted of a minimum of at least 10-12 mice per group. Ex vivo experiments included flow cytometry analyses for plasma cells, serum complement C3 and ANA levels; urine protein and leukocytes, serum cytokine profiling, renal histo pathology, and determination of compound levels (pharmacokinetics (PK)) in the spleen, kidney and plasma. Mice were tracked on an individual basis. For all data, mice were grouped into populations and data graphed as mean±SEM. Bi-monthly observations and data collected were recorded for each group, except mortality which was performed daily. End-stage readouts were analyzed as described in the MATERIALS AND METHODS section (above) and in FIG. 1. […]

The test system of assay [1] is anti-chromatin antibody secreting cells (ASCs). Kind of assay: Anti-chromatin antibody secreting B-cell Elispot, MRL/lpr spleen. The format is in vivo, mouse. The conditions noted are these: MRL/lpr mice; 100 mg/kg; p<0.001. As for the experimental part: B-cell Elispot components were ordered from MabTech (Nacka Strand, Sweden) and nitrocellulose IP filter plates were ordered from Millipore (Billerica, Mass.). […] Spleens were processed using glass homogenization, filtered through a 60 μm sterile cell strainer and red blood cells (RBCs) lysed using BioLegend (San Diego, Calif.) lysis buffer. Processed splenocytes were added to each well in culture medium. To avoid skewing of true ex vivo frequencies of antibody secreting cell types (ASCs), cells were not stimulated with a polyclonal mitogen like LPS, but rather incubated in media alone to allow monitoring of genuine ex vivo antibody release. Anti-mouse pan-IgG was used as a positive control for total IgG producing ASCs and was used to normalize results. Frequencies for each antigen were identified in an initial test phase for each model. […] Different numbers of splenocytes were added for different antigens due to saturation limits of spot frequencies per well. These limits were previously established. B-cell Elispots were incubated overnight at 37° C. To develop each assay, secondary antibody was added to each well, incubated, washed and alkaline phosphatase strepavidin was used as the conjugate; substrate used was BCIP-NBT. Plates were developed until spots were visible. […]

Regarding `CN1CCN(c2cccc(Nc3nc4c(-c5ccc(S(C)(=O)=O)cc5)cccn4n3)c2)CC1` [COMPOUND A, [8-(4-methanesulfonyl-phenyl)-[1,2,4]triazolo[1,5-a]pyridin-2-yl]-[3-(4-methyl-piperazin-1-yl)-phenyl]-amine], the entries for the “serum C3 increase over vehicle” value in the assay with C3 (55 mg/kg p.o. b.i.d.) and in the assay with C3 (100 mg/kg p.o. b.i.d.) were 51.4% and 52.5%, respectively. In addition, the “frequency of anti-chromatin ASCs in the spleen, decrease vs vehicle” value in assay [1] is on record as 89.1%.
